From PubChem BioAssay (NCI)
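Dose response: 5 concentrations. Exposure: 48 h. Format: 96-well plates. Endpoint: linear interpolation; highest concentration if not reached. The concentration for 50% growth inhibition is given as GI50. Definition used: TGI = concentration required for complete inhibition of growth.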

Assays:
Assay in all cases: NCI-60 cell line screen, 48 h
T-47D breast = test system: T-47D breast
IGROV1 ovarian = test system: IGROV1 ovarian
ACHN renal = test system: ACHN renal
NCI-H460 lung = test system: NCI-H460 lung
A549 NSCLC = test system: A549 NSCLC
UACC-62 melanoma = test system: UACC-62 melanoma
SR leukemia = test system: SR leukemia
SN12C renal = test system: SN12C renal
SNB-19 CNS = test system: SNB-19 CNS
CCRF-CEM leukemia = test system: CCRF-CEM leukemia

Row | SMILES | TGI (T-47D breast) [µM] | TGI (IGROV1 ovarian) [µM] | TGI (ACHN renal) [µM] | TGI (NCI-H460 lung) [µM] | TGI (A549 NSCLC) [µM] | TGI (UACC-62 melanoma) [µM] | TGI (SR leukemia) [µM] | TGI (SN12C renal) [µM] | TGI (SNB-19 CNS) [µM] | TGI (CCRF-CEM leukemia) [µM] | GI50 (T-47D breast) [µM] | GI50 (IGROV1 ovarian) [µM] | GI50 (ACHN renal) [µM] | GI50 (NCI-H460 lung) [µM] | GI50 (A549 NSCLC) [µM] | GI50 (UACC-62 melanoma) [µM] | GI50 (SR leukemia) [µM] | GI50 (SN12C renal) [µM] | GI50 (SNB-19 CNS) [µM] | GI50 (CCRF-CEM leukemia) [µM]
1 | CC1CCCCCC(=O)c2c(O)cc(O)cc2CC(=O)O1 (stereo not given) | > 100 | > 100 | > 100 | > 100 | > 100 | > 100 | > 100 | > 100 | > 100 | > 100 | – | – | – | – | – | – | – | – | – | –
2 | O=[N+]([O-])c1ccc(C2=NCCO2)cc1 | > 100 | > 100 | > 100 | > 100 | > 100 | > 100 | > 100 | > 100 | > 100 | > 100 | > 100 | > 100 | > 100 | > 100 | > 100 | > 100 | > 100 | > 100 | > 100 | 3.15
3 | Cn1ncnc1[C@@H]1c2n[nH]c(=O)c3cc(F)cc(c23)N[C@H]1c1ccc(F)cc1 | > 100 | > 100 | > 100 | > 100 | > 100 | > 100 | > 100 | > 100 | > 100 | > 100 | > 100 | > 100 | > 100 | 78.4 | > 100 | > 100 | 33.2 | > 100 | > 100 | 91.6
4 | C/C(=C\C(=O)O[C@H]1[C@@H]2[C@H](C)CC[C@H]2[C@]2(C)O[C@@]1(C1CCCCC1)C[C@H]2OC(=O)CO)c1ccccc1 | 12.1 | 14.7 | 6.02 | 14.1 | 12.4 | 12.4 | 15 | 7.18 | 13.1 | 15.3 | 5.44 | 7.58 | 0.0147 | 6.86 | 6.61 | 6.62 | 6.87 | 0.0228 | 7.41 | 7
5 | C=CCC1(O)c2ccccc2C(=O)c2c(OCC(=O)OCC)ccc(OCC(=O)OCC)c21 (stereo not given) | > 100 | > 100 | > 100 | > 100 | > 100 | > 100 | > 100 | > 100 | > 100 | > 100 | > 100 | > 100 | > 100 | 84.9 | > 100 | 64.7 | 82.6 | 87.6 | > 100 | > 100
6 | CCC(=C(c1ccc(OCCN2CCCCC2)cc1)c1ccc(OCCN2CCCCC2)cc1)c1ccc(Cl)cc1 | > 16.7 | > 16.7 | > 16.7 | > 16.7 | > 16.7 | 6.2 | 1.27 | > 16.7 | > 16.7 | > 16.7 | 9.62 | 12.9 | 7.12 | 5.7 | 7.42 | 3.09 | 0.425 | > 16.7 | 5.91 | 1.92
7 | C[N+]1([O-])C2CCC1CC(OC(=O)C(CO)c1ccccc1)C2 (stereo not given) | > 100 | > 100 | > 100 | > 100 | > 100 | > 100 | > 100 | > 100 | > 100 | > 100 | – | – | – | – | – | – | – | – | – | –
8 | C=CCc1cccc(C=O)c1O | > 100 | > 100 | > 100 | > 100 | > 100 | > 100 | > 100 | > 100 | > 100 | > 100 | 10.2 | > 100 | > 100 | > 100 | > 100 | 35.9 | 22 | 20.8 | 14.6 | 4
9 | CC(C)=CCc1cc2c(cc1O)C1=C(C(=O)C3=C(NCCS3(=O)=O)C1=O)C(C=C(C)C)O2 (stereo not given) | > 16.7 | 15 | > 16.7 | > 16.7 | > 16.7 | 8.79 | > 16.7 | 5.69 | 11.9 | > 16.7 | 4.05 | 3.69 | 10.7 | 5.35 | > 16.7 | 3.39 | 5.46 | 2.78 | 3.81 | 4.53
10 | Cc1ccc(N)c(S)c1 | 33.9 | 31.5 | 37.9 | 49.9 | 40.6 | 32.7 | 45.8 | 7.83 | 36.7 | > 100 | – | – | – | – | – | – | – | – | – | –
11 | C=C(CO)C(=O)OC1CC(=C)C2CC(O)C(C)C2C2OC(=O)C(=C)C12 (stereo not given) | > 100 | 39.3 | 34 | > 100 | > 100 | 35.3 | 51.2 | 32.7 | 61.6 | 77.7 | – | – | – | – | – | – | – | – | – | –
12 | CCOC(=O)c1noc2c1CCc1c-2cn(Cc2ccc(OC)cc2)c1-c1cc(OC)c(OC)c(OC)c1 | > 100 | > 100 | > 100 | > 100 | > 100 | > 100 | > 100 | > 100 | > 100 | > 100 | > 100 | 2.45 | 3.51 | 1 | 3.8 | 2.74 | 2.09 | 3.92 | 0.668 | 1.04
13 | Nc1c(C(=O)Nc2cccc(Cl)c2)sc2nc3c(cc12)C(=O)CCC3 | > 100 | > 100 | > 100 | > 100 | > 100 | > 100 | > 100 | > 100 | > 100 | > 100 | 0.422 | 2.28 | > 20 | 0.322 | 0.42 | 0.349 | 0.383 | 0.836 | 0.529 | 0.383
